The subject of this test is angiotensin converting enzyme (ACE). Kind of test: in vivo attenuation of angiotensin I pressor response after oral administration in conscious, normotensive rats. Particulars: maximum during three-hour period, mean of at least four rats. On the procedure:
The compounds of formula I were tested in vivo in conscious, normotensive rats. Angiotensin I given intravenously increases blood pressure due to conversion to angiotensin II via the angiotensin converting enzyme (ACE). ACE inhibition was reflected by the attenuation of an angiotensin I pressor response after compound administration. The in vivo testing procedure is described in greater detail by Rubin et al., "SQ14,225 (D-3-Mercapto-2-Methylpropanoyl-L-Proline), A Novel Orally Active Inhibitor Of Angiotensin I Converting Enzyme", J. Pharm. Exp. Therap., Vol. 204, p 271-280 (1978).
The inhibition of the angiotensin I pressor response is expressed as the percentage of the response to angiotensin I obtained before the test compound was administered, and was measured at regular intervals during a three-hour period following the administration of the test compound. The maximum percentage inhibition observed during this period is given in the table as a number from 0 to 100 percent. All results are the mean values obtained for testing of each compound in at least four rats. For compounds tested at more than one dose, it can be observed that increased amounts of compound administered lead to increased levels of inhibition.

Setting [1] is: oral dose 0.5 (dose unit not given).
[2] abbreviates: oral dose 1.5 (dose unit not given).
Setting [3] is: oral dose 5 (dose unit not given).
Where [4] appears, read: oral dose 15 (dose unit not given).
The mark [5] stands for this setting: oral dose 0.5 (dose unit not given), dilithium salt.
Setting [6] is: oral dose 1.5 (dose unit not given), dilithium salt.
Where [7] appears, read: oral dose 5 (dose unit not given), dilithium salt.

These results are taken from patent publication US4745196A, “Orally active phosphonyl hydroxyacyl prolines” (E. R. Squibb & Sons, Inc., priority 1986, dated 1988).

Counter-ions that a name gives are not always drawn.

Take `NCCCC[C@H](OP(=O)(O)CCCCc1ccccc1)C(=O)N1CCC[C@H]1C(=O)O` [Example 4, (S)-1-[6-Amino-2-[[hydroxy(4-phenylbutyl)phosphinyl]oxy]-1-oxohexyl]-L-proline]: the “Maximum Percent Inhibition of the angiotensin I pressor response” value (“Maximum Percent Inhibition” for short) under setting [1] was determined as 46.60%, the “Maximum Percent Inhibition” value under setting [2] was 69.00% and the “Maximum Percent Inhibition” value under setting [3] is 89.90%.
Turning to `NCCCC[C@H](OP(=O)(O)CCCCCc1ccccc1)C(=O)N1CCC[C@H]1C(=O)O` [Example 6, (S)-1-[6-Amino-2-[[hydroxy(5-phenylpentyl)phosphinyl]oxy]-1-oxohexyl]-L-proline], the “Maximum Percent Inhibition” value under setting [3] stood at 64.70%.
Turning to `CCCCCCCCP(=O)(O)O[C@@H](CCCCN)C(=O)N1CCC[C@H]1C(=O)O` [Example 12, (S)-1-[6-Amino-2-[(octylhydroxyphosphinyl)oxy]-1-oxohexyl]-L-proline, dilithium salt], the “Maximum Percent Inhibition” value under setting [1] was 16.80%, the “Maximum Percent Inhibition” value under setting [2] amounted to 51.10%, the “Maximum Percent Inhibition” value under setting [3] is on record as 82.60% and the “Maximum Percent Inhibition” value under setting [4] was determined as 93.60%.
Take `NCCCC[C@H](OP(=O)(O)CCCCc1ccccc1)C(=O)N1CCC[C@H]1C(=O)O` [Example 3, (S)-1-[6-Amino-2-[[hydroxy(4-phenylbutyl)phosphinyl]oxy]-1-oxohexyl]-L-proline, dilithium salt]: the “Maximum Percent Inhibition” value by setting is: under setting [5], 20.90%; under setting [6], 74.00%; under setting [7], 91.00%; under setting [4], 97.10%.
As for `NCCCC[C@H](OP(=O)(O)CCCCc1ccc(F)cc1)C(=O)N1CCC[C@H]1C(=O)O` [Example 5, (S)-1-[6-Amino-2-[[[4-(4-fluorophenyl)butyl]hydroxyphosphinyl]oxy]-1-oxohexyl]-L-proline], the “Maximum Percent Inhibition” value is 22.20% under setting [1], 69.00% under setting [2] and 80.50% under setting [3].
Take `NCCCC[C@H](OP(=O)(O)CCc1ccccc1)C(=O)N1CCC[C@H]1C(=O)O` [Example 1, (S)-1-[6-Amino-2-[[hydroxy(2-phenylethyl)phosphinyl]oxy]-1-oxohexyl]-L-proline, dilithium salt]: the “Maximum Percent Inhibition” value is, setting by setting: under setting [2], 50.30%; under setting [3], 64.50%.
Turning to `CCCCCCP(=O)(O)O[C@@H](CCCCN)C(=O)N1CCC[C@H]1C(=O)O` [Example 9, (S)-1-[6-Amino-2-[(hexylhydroxyphosphinyl)oxy]-1-oxohexyl]-L-proline], the “Maximum Percent Inhibition” value reads like this: under setting [1], 17.90%; under setting [2], 66.50%; under setting [3], 82.10%; under setting [4], 90.30%.
Take `CCCCCP(=O)(O)O[C@@H](CCCCN)C(=O)N1CCC[C@H]1C(=O)O` [Example 7, 1-[(S)-6-Amino-2-[(hydroxypentylphosphinyl)oxy]-1-oxohexyl]-L-proline]: the “Maximum Percent Inhibition” value under setting [3] is reported as 57.20%.
`CCCCCCP(=O)(O)O[C@@H](CCCCN)C(=O)N1CCC[C@H]1C(=O)O` [Example 8, (S)-1-[6-Amino-2-[(hexylhydroxyphosphinyl)oxy]-1-oxohexyl]-L-proline, dilithium salt]: the “Maximum Percent Inhibition” value is reported as 19.70% under setting [5]; 72.40% under setting [6]; 82.70% under setting [7]; 85.50% (oral dose 15 (dose unit not given), dilithium salt).
In the case of `CCCCCCCP(=O)(O)O[C@@H](CCCCN)C(=O)N1CCC[C@H]1C(=O)O` [Example 10, 1-[(S)-6-Amino-2-[(heptylhydroxyphosphinyl)oxy]-1-oxohexyl]-L-proline], the “Maximum Percent Inhibition” value runs as follows: under setting [1], 45.00%; under setting [2], 66.00%; under setting [3], 75.00%.
Take `NCCCC[C@H](OP(=O)(O)CCCc1ccccc1)C(=O)N1CCC[C@H]1C(=O)O` [Example 2, (S)-1-[6-Amino-2-[[hydroxy(3-phenylpropyl)phosphinyl]oxy]-1-oxohexyl]-L-proline]: the “Maximum Percent Inhibition” value by setting is: under setting [2], 32.30%; under setting [3], 66.70%.
